According to patent US11739350B2 (priority 2018, dated 2023):

Tests used:
[1] = system: patient-derived pancreatic cancer cell line (Patient 25)

GSK126
Cell viability (%) relative to mock vehicle-treated cells (title: GSK126-induced cytotoxicity (%)) (786-0): 111.99% | Cell viability (%) relative to mock vehicle-treated cells (title: GSK126-induced cytotoxicity (%)) (BxPC3): 96.07% | Cell viability as a percentage of control (cells treated with mock EVs and vehicle control) (BXPC3 cells): 90.78 percentage of control | Cell viability as a percentage of control (cells treated with mock EVs and vehicle control) (Patient 25): 64.14 percentage of control | Cell viability (%) relative to mock vehicle-treated cells (title: GSK126-induced cytotoxicity (%)) (4T1): 113.57% | Cell viability as a percentage of control (cells treated with mock EVs and vehicle control) (786-0 cells): 98.35 percentage of control | Cell viability (%) relative to mock vehicle-treated cells (title: GSK126-induced cytotoxicity (%)) [1]: 80.82%
